Columns and labels:
[1] = biological target: T1, Fibroblast growth factor receptor 4 (Homo sapiens, UniProt P22455); assay: Selectivity interaction (KinomeScan (DiscoverX)) EUB0000229b FGFR4; conditions: at 10 µM
[2] = biological target: Ribosomal protein S6 kinase alpha-2 (Homo sapiens) (UniProt Q15349); assay: Selectivity interaction (Kinome Scan (DiscoverX)) EUB0000229b RPS6KA2; conditions: at 10 µM
[3] = biological target: T2, Serine/threonine-protein kinase Nek5 (Homo sapiens) (UniProt Q6P3R8); assay: Selectivity interaction (KinomeScan (DiscoverX)) EUB0000695a NEK5; conditions: at 100 nM
T2 sequence (whole entry): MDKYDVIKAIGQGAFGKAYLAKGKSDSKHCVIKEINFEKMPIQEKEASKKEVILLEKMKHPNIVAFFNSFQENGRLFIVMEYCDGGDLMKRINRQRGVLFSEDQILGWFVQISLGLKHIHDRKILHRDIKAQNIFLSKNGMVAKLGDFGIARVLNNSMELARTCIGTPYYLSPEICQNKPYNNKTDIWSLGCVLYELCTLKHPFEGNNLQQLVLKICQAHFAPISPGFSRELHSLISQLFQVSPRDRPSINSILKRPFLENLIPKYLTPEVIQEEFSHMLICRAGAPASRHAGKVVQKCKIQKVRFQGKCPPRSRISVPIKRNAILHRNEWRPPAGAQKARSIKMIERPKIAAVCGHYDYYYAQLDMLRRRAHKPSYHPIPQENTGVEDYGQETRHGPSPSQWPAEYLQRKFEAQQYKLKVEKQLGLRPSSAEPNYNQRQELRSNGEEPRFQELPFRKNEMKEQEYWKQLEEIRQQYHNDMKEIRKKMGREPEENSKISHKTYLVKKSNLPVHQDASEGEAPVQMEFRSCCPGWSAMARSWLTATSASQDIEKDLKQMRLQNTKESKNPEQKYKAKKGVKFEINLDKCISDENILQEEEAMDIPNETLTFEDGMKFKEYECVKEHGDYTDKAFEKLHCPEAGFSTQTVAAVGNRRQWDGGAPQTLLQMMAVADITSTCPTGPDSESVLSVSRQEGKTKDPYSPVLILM

[4] = biological target: Serine/threonine-protein kinase 33 (Homo sapiens) (UniProt Q9BYT3); assay: Selectivity interaction (KinomeScan (DiscoverX)) EUB0001079a STK33; conditions: at 1 µM
[5] = biological target: Tyrosine-protein kinase JAK1 (Homo sapiens, UniProt P23458); assay: Selectivity interaction (KinomeScan (DiscoverX)) EUB0001079a JAK1; conditions: at 1 µM
[6] = biological target: T3, Atypical kinase COQ8B, mitochondrial (Homo sapiens) (UniProt Q96D53); conditions: at 10 µM
T3 sequence (whole entry): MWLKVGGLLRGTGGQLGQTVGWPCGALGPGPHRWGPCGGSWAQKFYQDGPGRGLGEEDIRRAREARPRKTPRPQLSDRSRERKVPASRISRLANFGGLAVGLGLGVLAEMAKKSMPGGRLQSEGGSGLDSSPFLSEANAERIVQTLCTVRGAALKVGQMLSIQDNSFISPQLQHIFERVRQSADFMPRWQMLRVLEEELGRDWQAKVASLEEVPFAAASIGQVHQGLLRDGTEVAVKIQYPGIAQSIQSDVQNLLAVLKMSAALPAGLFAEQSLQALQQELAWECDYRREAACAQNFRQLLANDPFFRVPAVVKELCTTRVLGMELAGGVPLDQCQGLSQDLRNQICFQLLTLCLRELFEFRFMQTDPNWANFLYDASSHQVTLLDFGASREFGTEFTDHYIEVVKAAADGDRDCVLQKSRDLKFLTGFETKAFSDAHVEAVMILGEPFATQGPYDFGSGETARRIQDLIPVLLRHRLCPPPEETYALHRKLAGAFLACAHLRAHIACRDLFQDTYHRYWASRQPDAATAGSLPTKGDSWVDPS

[7] = biological target: T1, Fibroblast growth factor receptor 4; conditions: at 10 µM
[8] = biological target: T4, Calcium/calmodulin-dependent protein kinase type IV (Homo sapiens) (UniProt Q16566); conditions: at 10 µM
T4 sequence (whole entry): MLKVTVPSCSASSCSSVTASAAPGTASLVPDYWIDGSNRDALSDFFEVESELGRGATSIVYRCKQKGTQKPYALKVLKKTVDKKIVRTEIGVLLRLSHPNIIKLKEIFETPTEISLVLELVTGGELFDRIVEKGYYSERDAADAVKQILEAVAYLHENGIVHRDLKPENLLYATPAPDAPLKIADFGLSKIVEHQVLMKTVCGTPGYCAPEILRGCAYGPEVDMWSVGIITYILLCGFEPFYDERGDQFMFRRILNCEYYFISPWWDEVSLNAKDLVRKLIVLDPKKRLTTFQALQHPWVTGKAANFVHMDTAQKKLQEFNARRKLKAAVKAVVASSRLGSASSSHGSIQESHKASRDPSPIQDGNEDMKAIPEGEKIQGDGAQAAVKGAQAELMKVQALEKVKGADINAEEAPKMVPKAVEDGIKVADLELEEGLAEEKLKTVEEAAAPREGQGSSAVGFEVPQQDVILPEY

[9] = biological target: Protein kinase C eta type (Homo sapiens) (UniProt P24723); assay: Selectivity interaction (Kinase screening (Nanosyn)) EUB0000604a PRKCH
[10] = biological target: Misshapen-like kinase 1 (Homo sapiens, UniProt Q8N4C8); assay: Selectivity interaction (ProQinase) EUB0000171b MINK1
[11] = biological target: Cyclin-dependent kinase 5/CDK5 activator 1 (Homo sapiens) (UniProt Q00535+Q15078); assay: Selectivity interaction (ProQinase) EUB0000171b CDK5; type: protein-complex assay; conditions: at 1 µM
[12] = biological target: Mitogen-activated protein kinase 14 (Homo sapiens, UniProt Q16539); assay: Selectivity interaction (Kinase panel (literature)) EUB0001199aCl MAPK14; conditions: at 1 µM
[13] = biological target: Serine/threonine-protein kinase MARK2 (Homo sapiens) (UniProt Q7KZI7); assay: Selectivity interaction (ActivX KiNativ screen (kinase selectivity in THP-1 cell lysates)) EUB0000639a MARK2; type: subcellular; conditions: lysate, at 1 µM
[14] = biological target: Receptor-interacting serine/threonine-protein kinase 2 (Homo sapiens, UniProt O43353); assay: Selectivity interaction (KinomeScan (DiscoverX)) EUB0000655a RIPK2; conditions: at 10 µM
[15] = biological target: Dual specificity protein kinase CLK1 (Homo sapiens, UniProt P49759); assay: Selectivity interaction (KinomeScan (DiscoverX)) EUB0000092b CLK1; conditions: at 10 µM
Sequence of Dual specificity protein kinase CLK1 (P49759 whole entry, looked up): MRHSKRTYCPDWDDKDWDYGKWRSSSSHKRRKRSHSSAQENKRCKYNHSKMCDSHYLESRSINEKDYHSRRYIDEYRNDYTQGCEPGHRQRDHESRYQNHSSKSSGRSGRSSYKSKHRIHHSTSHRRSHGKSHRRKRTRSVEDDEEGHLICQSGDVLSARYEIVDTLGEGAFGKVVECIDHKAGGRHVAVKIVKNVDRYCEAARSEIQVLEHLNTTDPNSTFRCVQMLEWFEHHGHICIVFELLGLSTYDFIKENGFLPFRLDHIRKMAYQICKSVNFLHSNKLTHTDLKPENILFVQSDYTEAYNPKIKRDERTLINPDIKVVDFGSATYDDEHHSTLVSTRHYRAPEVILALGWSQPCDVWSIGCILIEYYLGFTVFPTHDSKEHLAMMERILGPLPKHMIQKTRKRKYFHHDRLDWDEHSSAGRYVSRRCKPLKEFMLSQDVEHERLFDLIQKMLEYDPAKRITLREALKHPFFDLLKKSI

T1 sequence (P22455 22-802 limits assumed): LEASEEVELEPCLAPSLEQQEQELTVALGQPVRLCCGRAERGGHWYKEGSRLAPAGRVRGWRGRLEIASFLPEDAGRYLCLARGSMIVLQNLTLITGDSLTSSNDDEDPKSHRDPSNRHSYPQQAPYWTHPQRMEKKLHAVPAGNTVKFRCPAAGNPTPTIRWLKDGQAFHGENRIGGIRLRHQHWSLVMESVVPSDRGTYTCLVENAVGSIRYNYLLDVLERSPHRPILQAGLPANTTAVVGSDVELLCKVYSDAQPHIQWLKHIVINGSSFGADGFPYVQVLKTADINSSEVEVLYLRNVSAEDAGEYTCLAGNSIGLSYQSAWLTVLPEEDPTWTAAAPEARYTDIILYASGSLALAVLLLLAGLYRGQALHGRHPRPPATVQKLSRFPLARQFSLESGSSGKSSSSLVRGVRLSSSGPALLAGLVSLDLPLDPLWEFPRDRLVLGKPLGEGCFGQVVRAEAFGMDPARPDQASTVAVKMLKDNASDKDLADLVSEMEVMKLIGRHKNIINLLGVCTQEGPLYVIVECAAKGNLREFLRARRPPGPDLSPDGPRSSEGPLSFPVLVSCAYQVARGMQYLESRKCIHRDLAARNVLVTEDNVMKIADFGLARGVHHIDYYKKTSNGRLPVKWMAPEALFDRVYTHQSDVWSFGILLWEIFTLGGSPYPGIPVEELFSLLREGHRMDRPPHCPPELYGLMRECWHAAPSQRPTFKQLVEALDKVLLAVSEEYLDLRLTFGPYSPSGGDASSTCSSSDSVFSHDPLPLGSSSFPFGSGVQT
Sequence of Misshapen-like kinase 1 (Q8N4C8 whole entry, looked up): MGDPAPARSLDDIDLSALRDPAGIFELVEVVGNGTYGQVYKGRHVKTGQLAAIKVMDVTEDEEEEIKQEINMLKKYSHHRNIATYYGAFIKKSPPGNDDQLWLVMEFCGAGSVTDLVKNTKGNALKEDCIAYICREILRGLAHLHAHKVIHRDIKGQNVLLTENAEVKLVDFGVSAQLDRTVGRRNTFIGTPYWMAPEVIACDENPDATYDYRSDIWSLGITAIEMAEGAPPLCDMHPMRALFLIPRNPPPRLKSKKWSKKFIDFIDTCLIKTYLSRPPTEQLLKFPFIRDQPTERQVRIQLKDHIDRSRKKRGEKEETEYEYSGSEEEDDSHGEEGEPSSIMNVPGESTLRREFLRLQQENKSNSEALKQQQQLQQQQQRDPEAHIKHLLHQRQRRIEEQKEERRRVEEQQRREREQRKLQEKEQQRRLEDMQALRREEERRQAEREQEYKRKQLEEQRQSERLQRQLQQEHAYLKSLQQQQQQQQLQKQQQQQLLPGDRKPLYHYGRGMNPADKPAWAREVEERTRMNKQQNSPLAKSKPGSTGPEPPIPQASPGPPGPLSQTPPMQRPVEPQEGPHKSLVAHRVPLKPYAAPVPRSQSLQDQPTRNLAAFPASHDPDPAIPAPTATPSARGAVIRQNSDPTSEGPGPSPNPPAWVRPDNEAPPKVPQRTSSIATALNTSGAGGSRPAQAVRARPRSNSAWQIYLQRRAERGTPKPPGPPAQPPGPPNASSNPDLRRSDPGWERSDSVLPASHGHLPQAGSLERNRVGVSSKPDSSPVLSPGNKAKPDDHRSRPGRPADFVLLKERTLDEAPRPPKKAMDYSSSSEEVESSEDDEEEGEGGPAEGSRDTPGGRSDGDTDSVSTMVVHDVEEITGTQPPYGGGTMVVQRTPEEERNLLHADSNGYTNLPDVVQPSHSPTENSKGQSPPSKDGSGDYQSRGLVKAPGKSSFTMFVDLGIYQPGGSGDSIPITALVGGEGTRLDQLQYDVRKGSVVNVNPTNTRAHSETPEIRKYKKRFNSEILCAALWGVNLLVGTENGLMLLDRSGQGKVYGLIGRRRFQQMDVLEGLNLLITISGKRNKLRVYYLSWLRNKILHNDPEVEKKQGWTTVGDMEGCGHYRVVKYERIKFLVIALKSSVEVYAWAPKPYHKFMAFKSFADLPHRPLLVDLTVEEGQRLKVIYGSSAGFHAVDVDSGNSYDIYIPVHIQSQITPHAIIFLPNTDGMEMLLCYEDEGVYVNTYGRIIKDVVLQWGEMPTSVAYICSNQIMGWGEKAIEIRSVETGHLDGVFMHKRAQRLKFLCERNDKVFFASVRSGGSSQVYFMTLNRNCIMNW
Sequence of Serine/threonine-protein kinase MARK2 (Homo sapiens) (Q7KZI7 whole entry): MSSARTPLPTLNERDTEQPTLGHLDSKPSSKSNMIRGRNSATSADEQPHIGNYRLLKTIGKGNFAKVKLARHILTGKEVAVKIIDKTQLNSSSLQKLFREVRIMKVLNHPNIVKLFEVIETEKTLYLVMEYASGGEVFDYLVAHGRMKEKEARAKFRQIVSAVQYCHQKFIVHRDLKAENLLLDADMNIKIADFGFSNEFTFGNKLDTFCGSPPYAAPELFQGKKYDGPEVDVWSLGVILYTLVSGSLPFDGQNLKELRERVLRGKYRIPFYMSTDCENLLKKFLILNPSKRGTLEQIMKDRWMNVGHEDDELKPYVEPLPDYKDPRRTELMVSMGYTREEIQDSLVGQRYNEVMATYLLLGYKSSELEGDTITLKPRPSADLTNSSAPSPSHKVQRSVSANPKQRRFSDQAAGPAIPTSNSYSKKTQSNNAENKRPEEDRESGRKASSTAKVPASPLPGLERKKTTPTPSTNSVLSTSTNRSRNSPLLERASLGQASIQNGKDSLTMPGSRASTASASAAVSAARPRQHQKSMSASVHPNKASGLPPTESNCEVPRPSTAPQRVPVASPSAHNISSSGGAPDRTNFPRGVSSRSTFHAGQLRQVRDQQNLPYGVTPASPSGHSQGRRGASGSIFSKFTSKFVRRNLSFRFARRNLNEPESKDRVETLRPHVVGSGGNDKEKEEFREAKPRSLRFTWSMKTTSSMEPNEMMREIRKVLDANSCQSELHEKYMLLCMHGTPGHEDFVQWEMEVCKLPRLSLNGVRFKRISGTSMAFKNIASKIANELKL
Sequence of Protein kinase C eta type (Homo sapiens) (P24723 whole entry): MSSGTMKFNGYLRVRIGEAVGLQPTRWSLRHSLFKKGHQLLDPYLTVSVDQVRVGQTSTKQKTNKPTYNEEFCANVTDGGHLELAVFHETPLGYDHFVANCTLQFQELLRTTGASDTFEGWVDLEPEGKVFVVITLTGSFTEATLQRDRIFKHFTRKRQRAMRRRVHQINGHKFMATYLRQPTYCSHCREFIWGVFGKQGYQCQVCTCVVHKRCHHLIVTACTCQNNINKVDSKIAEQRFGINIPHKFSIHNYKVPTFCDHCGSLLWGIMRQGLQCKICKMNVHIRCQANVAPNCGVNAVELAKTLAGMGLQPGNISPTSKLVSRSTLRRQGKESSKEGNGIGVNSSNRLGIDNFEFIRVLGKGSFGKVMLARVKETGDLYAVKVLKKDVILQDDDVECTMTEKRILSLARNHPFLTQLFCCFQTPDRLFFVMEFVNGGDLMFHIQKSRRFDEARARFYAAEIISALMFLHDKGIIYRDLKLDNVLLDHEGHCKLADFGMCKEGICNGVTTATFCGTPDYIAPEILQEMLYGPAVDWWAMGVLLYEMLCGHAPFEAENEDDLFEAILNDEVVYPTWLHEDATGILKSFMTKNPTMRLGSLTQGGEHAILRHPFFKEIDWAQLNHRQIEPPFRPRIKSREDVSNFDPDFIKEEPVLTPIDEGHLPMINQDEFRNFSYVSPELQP
Sequence of Receptor-interacting serine/threonine-protein kinase 2 (O43353 whole entry): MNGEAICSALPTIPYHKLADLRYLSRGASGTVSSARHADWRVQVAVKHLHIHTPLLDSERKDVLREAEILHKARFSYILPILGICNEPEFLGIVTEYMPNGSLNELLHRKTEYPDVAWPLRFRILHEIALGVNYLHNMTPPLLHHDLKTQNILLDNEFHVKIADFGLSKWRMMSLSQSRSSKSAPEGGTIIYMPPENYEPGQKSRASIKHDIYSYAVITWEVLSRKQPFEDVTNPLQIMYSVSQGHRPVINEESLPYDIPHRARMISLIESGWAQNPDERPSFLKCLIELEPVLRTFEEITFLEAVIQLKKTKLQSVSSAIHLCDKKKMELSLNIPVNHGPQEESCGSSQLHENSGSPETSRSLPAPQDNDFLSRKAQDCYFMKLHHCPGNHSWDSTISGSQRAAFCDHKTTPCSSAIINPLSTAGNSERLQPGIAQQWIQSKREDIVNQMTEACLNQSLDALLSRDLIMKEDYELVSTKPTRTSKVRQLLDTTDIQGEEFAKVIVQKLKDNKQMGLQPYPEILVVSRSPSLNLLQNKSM
Sequence of Mitogen-activated protein kinase 14 (Q16539 whole entry): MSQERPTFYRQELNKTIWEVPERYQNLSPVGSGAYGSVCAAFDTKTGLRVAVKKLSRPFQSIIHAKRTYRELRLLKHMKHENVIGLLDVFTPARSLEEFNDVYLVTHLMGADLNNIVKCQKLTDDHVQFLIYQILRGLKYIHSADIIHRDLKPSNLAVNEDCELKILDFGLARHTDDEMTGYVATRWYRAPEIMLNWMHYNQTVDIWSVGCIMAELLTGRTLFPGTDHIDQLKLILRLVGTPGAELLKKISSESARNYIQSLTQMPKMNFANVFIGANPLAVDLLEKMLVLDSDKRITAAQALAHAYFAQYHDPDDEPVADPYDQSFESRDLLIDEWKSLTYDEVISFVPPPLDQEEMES

COc1cc(N(C)c2ccnc3ccc(C(F)(F)F)cc23)cc(OC)c1OC
% binding [1]: 100% | % binding [2]: 74%

Cc1cc(F)c(C(=O)Nc2cccc(-c3nncn3C(C)C)n2)cc1-n1cnc(C2CC2)c1
% of control [3]: 91%

Nc1cnc(N2CCc3cc(S(=O)(=O)Nc4c(F)cc(Cl)cc4F)cc(N4CCCC4=O)c32)nc1 [TP-020n]
% of control [4]: 80% | % of control [5]: 100%

Cc1cc([C@@H](C)Nc2ccccc2C(=O)O)c2nc(N3CCOCC3)cc(=O)n2c1 [AZD-6482]
% of control [6]: 79% | % of control [7]: 100% | % of control [8]: 100%

Cc1cnc(Nc2ccc(F)cc2Cl)nc1-c1c[nH]c(C(=O)N[C@H](CO)c2cccc(Cl)c2)c1
% of inhibition [9]: 2%

C=CC(=O)Nc1cccc(C(=O)Nc2ccc(Nc3cc(-c4[nH]c(SC)nc4C)ccn3)cc2)c1
% of control ([10]; at 1 µM): 75% | % of control ([10]; at 5 µM): 44% | % of control [11]: 74%

CN1Cc2nccc(-c3cn(C)nc3-c3ccc(F)cc3)c2C1=O
% of inhibition [12]: 37%

CC[C@@H]1[C@H](F)C(=O)N[C@@H]1COc1nccc2cc(C(N)=O)c(OC)cc12 [ZIMLOVISERTIB]
% of inhibition [13]: 4.3%

CN(C)CCOc1ccc(-c2nc(-c3ccncc3)c(-c3ccc4c(c3)CC/C4=N\O)[nH]2)cc1
% of control [14]: 14%

CCC(=O)N1CCN(c2ccc(-n3c(=O)ccc4cnc5ccc(-c6cnc7ccccc7c6)cc5c43)cc2C(F)(F)F)CC1
% of control [15]: 49%
